Test results from US9920014B2, “Selective inhibition of bacterial topoisomerase I” (THE FLORIDA INTERNATIONAL BOARD OF TRUSTEES MODESTO A. …, priority 2013, dated 2018).

Target: E. coli DNA Gyrase (Escherichia coli, UniProt P0AES4+P0AES6)
Assay: Inhibition assay against E. coli DNA gyrase (plasmid supercoiling, agarose gel)
Format: biochemical
Conditions: 1 to 50 μM compound
Procedure: Inhibition Assays Against E. coli DNA Gyrase:
The reaction mixture (30 μl) contained 35 mM Tris-HCl at pH 7.5, 24 mM KCl, 4 mM MgCl2, 2 mM DTT, 1.75 mM ATP, 5 mM spermidine, 0.1 mg/ml BSA, 6.5% glycerol, 250 ng of the relaxed plasmid pBAD-GFPuv, 0.5 units of E. coli DNA Gyrase, and one of the compounds at a final concentration that ranges from 1 to 50 μM. All components were assembled on ice and incubated for 30 minutes at 37° C. After the incubation, the reactions were terminated by extraction with an equal volume of phenol. The topological state of the DNA samples was analyzed with 1% agarose gel electrophoresis in 1×TAE buffer, pH 7.8. Following electrophoresis, the agarose gel was stained with Ethidium Bromide, destained, and photographed under UV light. The intensity of DNA topoisomers was determined using KODAK 1D Image Analysis Software.

Sequence of E. coli DNA Gyrase (P0AES4 whole entry, one chain of several): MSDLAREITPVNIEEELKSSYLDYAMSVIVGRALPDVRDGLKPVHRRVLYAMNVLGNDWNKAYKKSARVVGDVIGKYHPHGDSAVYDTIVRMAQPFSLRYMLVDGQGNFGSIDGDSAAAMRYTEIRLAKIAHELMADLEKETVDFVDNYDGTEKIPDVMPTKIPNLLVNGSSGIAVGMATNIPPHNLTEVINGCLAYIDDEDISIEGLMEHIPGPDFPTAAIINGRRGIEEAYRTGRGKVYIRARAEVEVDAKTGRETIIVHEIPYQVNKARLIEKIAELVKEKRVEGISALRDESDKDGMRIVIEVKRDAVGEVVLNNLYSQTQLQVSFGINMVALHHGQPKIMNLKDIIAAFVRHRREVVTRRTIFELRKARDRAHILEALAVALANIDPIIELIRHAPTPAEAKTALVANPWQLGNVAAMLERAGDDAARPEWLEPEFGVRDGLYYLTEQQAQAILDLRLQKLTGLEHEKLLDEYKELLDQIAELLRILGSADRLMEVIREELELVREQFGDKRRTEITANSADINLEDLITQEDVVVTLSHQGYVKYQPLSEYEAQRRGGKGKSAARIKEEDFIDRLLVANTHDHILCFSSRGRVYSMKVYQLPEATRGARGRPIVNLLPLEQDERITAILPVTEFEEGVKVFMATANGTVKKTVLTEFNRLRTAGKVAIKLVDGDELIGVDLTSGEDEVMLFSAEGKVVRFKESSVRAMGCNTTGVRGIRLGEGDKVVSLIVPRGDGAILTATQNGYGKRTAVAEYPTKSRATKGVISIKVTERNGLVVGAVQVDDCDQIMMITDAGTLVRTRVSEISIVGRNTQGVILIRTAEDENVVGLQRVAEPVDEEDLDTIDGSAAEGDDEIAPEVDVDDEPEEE

Structure (SMILES): CN1CCN(c2ccc3[nH]c(-c4ccc5[nH]c(-c6ccc(O)cc6)nc5c4)nc3c2)CC1 [Hoechst 33258, reference compound]
- inhibition of DNA gyrase's activities: did not inhibit
